Source: publication PMC8355244, “A fragment-based approach identifies an allosteric pocket that impacts malate dehydrogenase activity” (Communications Biology, 2021)
Several values for one entry are separate records, joined by “and”; a condition that tells them apart may be missing. Equal entries are not always repeated. Where two headings read alike, the source gives them in different places.

How the values were obtained:
MDH = settings: cited from earlier work
PfMDH [1] = molecular target: T1, PfMDH (Plasmodium falciparum, UniProt Q6VVP7); settings: Supplementary Table 2; ref 10.1021/jm070336k; cited from earlier work
T1 construct: The full-length WT PfMDH gene was cloned into pETM-13; made in house; host or cells: E. coli Rosetta 2 (DE3) pLysS

HsMDH2 = settings: Supplementary Table 1, cited from earlier work
PfMDH [2] = molecular target: T1, PfMDH; assay: Dynamic light scattering (DLS), aggregation; settings: PfMDH samples incubated with compound
Description: Measurements were performed on Litesizer 500 (Anton Paar). Samples were incubated with the highest concentrations of compounds for 2 h at room temperature. Prior to measurements, samples were spun for 5 min at 16,000 rpm (Eppendorf Centrifuge 5415R) to remove aggregates.

[3] = Precipitation / turbidity of compound in assay buffer (600 nm); assay type: physicochemical; settings: activity screening buffer, 500 µM
Description: 1.3 µL of derivatives of 4-phenylthiazol-2-amine in 100% DMSO were mixed with 237.7 µL of a mastermix of WT PfMDH previously incubated with NAD+. The final compound concentration used in this screening was 500 µM in the presence of 0.5% (v/v) DMSO. The microplate was sealed with silver foil for 1-h incubation at 25–35 °C. Finally, reactions in both the samples and control wells were started upon the addition of 13.0 µL of 5 mM malate). At the end of the experiments, the reaction of the plate was spectrophotometrically assayed at 600 nm in order to identify turbidity due to the low solubility of the compound. All measurements were performed in duplicate.

PfMDH [4] = molecular target: T1, PfMDH; assay: Small-angle X-ray scattering (SAXS) of PfMDH with compounds; settings: 1 mM compound; for radius of gyration Rg of PfMDH in complex: apo PfMDH 33.78 ± 5.51
Description: X-ray scattering experiments were performed using the laboratory SAXS system Xeuss 2.0 (XENOCS, Grenoble, France) equipped with a MetalJet D2 microfocus X-ray generator (0.134 nm wavelength). The protein solution at a concentration of 2.49 mg ml^−1 was mixed with 4PA derivatives at a concentration of 1 mM, incubated for 1 h at room temperature, and spun at 16,000 rpm (Eppendorf Centrifuge 5415R) to remove any potential aggregates prior to injection into the low-noise liquid sample cell. SAXS data were collected in 3–4 subsequent 10 min long frames using a Pilatus3R 1 M hybrid photon counting detector (Dectris, Switzerland). Data reduction and buffer subtraction procedures were performed using the Foxtrot package. Scattering profiles were assessed for radiation-damaged and averaged. Structural parameters were calculated in Primus from the ATSAS package. The distance distribution function was calculated using GNOM[58].

HsMDH1 = tested on: HsMDH1; set-up: method as in earlier work; settings: Supplementary Table 1; ref 10.1021/acs.jmedchem.7b01231; cited from earlier work
[5] = ref 10.1021/acs.jmedchem.7b01231

T1 sequence (Q6VVP7 entry or part of it): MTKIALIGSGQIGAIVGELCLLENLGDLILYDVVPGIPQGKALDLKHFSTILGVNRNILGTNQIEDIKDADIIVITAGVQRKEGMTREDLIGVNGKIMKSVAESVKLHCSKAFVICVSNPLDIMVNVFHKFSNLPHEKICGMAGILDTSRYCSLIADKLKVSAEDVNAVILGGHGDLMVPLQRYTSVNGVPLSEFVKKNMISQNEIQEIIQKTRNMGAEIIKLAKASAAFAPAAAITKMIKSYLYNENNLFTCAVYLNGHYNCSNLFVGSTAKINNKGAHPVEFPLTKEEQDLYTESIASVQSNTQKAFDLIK

CC(=O)c1c(O)c(C)c(O)c(Cc2c(O)c3c(c(C(=O)/C=C/c4ccccc4)c2O)OC(C)(C)C=C3)c1O [rottlerin]
IC50 (MDH): 0.7 µM

NC(=O)C(=O)O [Oxamate]
IC50 (PfMDH [1]): > 2000 µM

O=C1Cc2c([nH]c3ccc(Br)cc23)-c2ccccc2N1Cc1ccc(Cl)c(Cl)c1 [Inhibitor 4h]
IC50 (HsMDH2; ref 10.1016/j.ejmech.2009.10.018): 1100 ± 100 nM

Nc1nc(-c2ccc(Br)cc2)cs1 [compound 6a]
aggregation in DLS (PfMDH [2]): no aggregation in DLS
precipitation of compound in the buffer [3]: precipitation of compound was observed
Rg from Dmax analysis (PfMDH [4]; apo 33.93 ± 4): 34.52 ± 4.3 Å
Dmax (PfMDH [4]; apo 104.75): 113.74 Å
MW estimate of PfMDH complex (PfMDH [4]; apo 113.65): 91.175 kDa
radius of gyration Rg of PfMDH in complex (PfMDH [4]): 36.4 ± 3.15 Å and 36.4 Å

COC(=O)c1ccc(O)c(NC(=O)CCCOc2ccc(C(C)(C)CC(C)(C)C)cc2)c1 [Inhibitor 14c]
IC50 (HsMDH2; [5]): 1110 ± 10 nM

O=c1c(O)c(-c2ccc(O)c(O)c2)oc2cc(O)cc(O)c12 [quercetin]
IC50 (MDH): 6 µM

COC(=O)c1cccc(NC(=O)CCOc2ccc(C(C)(C)CC(C)(C)C)cc2)c1 [Inhibitor 16c]
IC50 (HsMDH2; [5]): 1060 ± 30 nM
IC50 (HsMDH1): 1070 ± 70 nM

Nc1nc(-c2ccc([N+](=O)[O-])cc2)cs1 [compound 2a]
aggregation in DLS (PfMDH [2]): no aggregation in DLS
precipitation of compound in the buffer [3]: precipitation of compound was observed
radius of gyration Rg of PfMDH in complex (PfMDH [4]): 33.78 ± 0.83 Å and 33.8 Å

COc1ccc(CNC(=O)c2cc(=O)c3c(O)cc(OCCc4ccc(NC(=O)C(=O)O)c(OC)c4)cc3o2)cc1 [Inhibitor 7]
IC50 (PfMDH [1]): 2.66 ± 0.24 µM

COC(=O)c1cccc(NC(=O)CCCOc2ccc(C(C)(C)CC(C)(C)C)cc2)c1 [Inhibitor 14b]
IC50 (HsMDH2; [5]): 1110 ± 10 nM
IC50 (HsMDH1): 1180 ± 80 nM

O=C(O)C(=O)Nc1ccc(CCOc2cc(O)c3c(=O)cc(C(=O)O)oc3c2)cc1 [Inhibitor 2]
IC50 (PfMDH [1]): > 241 µM

COc1cc(CCOc2cc(O)c3c(=O)cc(C(=O)O)oc3c2)ccc1NC(=O)C(=O)O [Inhibitor 4]
IC50 (PfMDH [1]): > 225 µM
